From PubChem BioAssay (NCI)
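Test compounds were applied to cells in 96-well plates for 48 hours at 5 doses. Here, GI50 denotes the concentration required for 50% inhibition of growth. TGI marks complete inhibition of growth.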

Legend:
Test in all cases: NCI anticancer screen, dose series, 48 h
DLD-1 colon = system: DLD-1 colon
DMS 273 small cell lung = system: DMS 273 small cell lung
HOP-18 NSCLC = system: HOP-18 NSCLC
LXFL 529 NSCLC = system: LXFL 529 NSCLC
M19-MEL melanoma = system: M19-MEL melanoma
XF 498 CNS = system: XF 498 CNS
HS 578T breast = system: HS 578T breast
MCF7 breast = system: MCF7 breast
MDA-MB-231 breast = system: MDA-MB-231 breast
MDA-MB-435 = system: MDA-MB-435

CSc1ccc(Cc2cc(C(C)(C)C)cc(C(C)(C)C)c2O)cc1
TGI (DLD-1 colon): 27.1 µM
TGI (DMS 273 small cell lung): 26.7 µM
TGI (HOP-18 NSCLC): 33.8 µM
TGI (LXFL 529 NSCLC): 26.9 µM
TGI (M19-MEL melanoma): 31.1 µM
TGI (XF 498 CNS): 31.8 µM

CC1=NC(C)=C(/C(C)=N/NC(=O)c2ccccc2O)C(C)/C1=C(/C)NNC(=O)c1ccccc1O (stereo not drawn)
TGI (DLD-1 colon): > 100 µM
TGI (LXFL 529 NSCLC): > 100 µM
TGI (M19-MEL melanoma): > 100 µM
TGI (XF 498 CNS): 85.9 µM

Oc1ccc(O)c(-n2cccn2)c1
TGI (DLD-1 colon): > 100 µM
TGI (DMS 273 small cell lung): > 100 µM
TGI (LXFL 529 NSCLC): 38.9 µM
TGI (M19-MEL melanoma): 76.1 µM
TGI (XF 498 CNS): > 100 µM

C[N+]1(CCNP(=S)(NCC[N+]2(C)Cc3c(ccc4c3OCO4)C3C2c2cc4c(cc2C[C@@H]3O)OCO4)NCC[N+]2(C)Cc3c(ccc4c3OCO4)C3C2c2cc4c(cc2C[C@@H]3O)OCO4)Cc2c(ccc3c2OCO3)C2C1c1cc3c(cc1C[C@H]2O)OCO3 (stereo partly drawn)
GI50 (DLD-1 colon): 1.68 µM
TGI (DMS 273 small cell lung): < 0.00191 µM
GI50 (HOP-18 NSCLC): 45.2 µM
GI50 (LXFL 529 NSCLC): 2750 nM
GI50 (M19-MEL melanoma): 2040 nM
GI50 (XF 498 CNS): 0.846 µM

Cc1ccc(NC(=O)CCc2nnc3s/c(=C\C=C\c4ccccc4)c(=O)n23)cc1
TGI (DLD-1 colon): > 100 µM
TGI (DMS 273 small cell lung): > 100 µM
TGI (HOP-18 NSCLC): > 100 µM
TGI (HS 578T breast): > 100 µM
TGI (LXFL 529 NSCLC): > 100 µM
TGI (M19-MEL melanoma): > 100 µM
TGI (MCF7 breast): > 100 µM
TGI (MDA-MB-231 breast): > 100 µM
TGI (MDA-MB-435): > 100 µM
TGI (XF 498 CNS): > 100 µM

CCCCSC1CCSc2c1ccc1ccccc21 (stereo not drawn)
TGI (DLD-1 colon): > 100 µM
TGI (HOP-18 NSCLC): > 100 µM
TGI (M19-MEL melanoma): > 100 µM
TGI (XF 498 CNS): 63.9 µM

COc1ccc(C2=NN(C(C)=O)c3nc4ccccc4nc3O2)cc1
TGI (DLD-1 colon): 88 µM
TGI (DMS 273 small cell lung): > 100 µM
TGI (HOP-18 NSCLC): 88.9 µM
TGI (LXFL 529 NSCLC): > 100 µM
TGI (M19-MEL melanoma): > 100 µM
TGI (XF 498 CNS): 49.2 µM

O=C(NC1CCCCC1)NC12CC3CC(CC(F)(C3)C1)C2
TGI (DLD-1 colon): > 100 µM
TGI (DMS 273 small cell lung): > 100 µM
TGI (LXFL 529 NSCLC): > 100 µM
TGI (M19-MEL melanoma): > 100 µM
TGI (XF 498 CNS): > 100 µM

Cc1ccc([N+](=O)[O-])cc1NC(=O)C(=O)Cc1nc2ccc(C(=O)c3ccccc3)cc2[nH]c1=O
TGI (DLD-1 colon): > 100 µM
TGI (DMS 273 small cell lung): > 100 µM
TGI (HOP-18 NSCLC): > 100 µM
TGI (LXFL 529 NSCLC): > 100 µM
TGI (M19-MEL melanoma): > 100 µM
TGI (XF 498 CNS): > 100 µM

O=C(/C=C/c1ccc(-c2ccccc2)cc1)c1ccccc1
TGI (DLD-1 colon): > 100 µM
TGI (HOP-18 NSCLC): > 100 µM
TGI (LXFL 529 NSCLC): 42.2 µM
TGI (M19-MEL melanoma): 48.5 µM
TGI (XF 498 CNS): 53.1 µM

OCC1CC2C=CCC(C2)C1 (stereo not drawn)
TGI (DLD-1 colon): > 100 µM
TGI (DMS 273 small cell lung): > 100 µM
TGI (HOP-18 NSCLC): > 100 µM
TGI (LXFL 529 NSCLC): > 100 µM
TGI (M19-MEL melanoma): > 100 µM
TGI (XF 498 CNS): > 100 µM

CSc1nc2c(nc(N)n2C2OC(CO)C(O)C(O)C2O)c(=O)[nH]1 (stereo not drawn)
TGI (DLD-1 colon): > 100 µM
TGI (HOP-18 NSCLC): > 100 µM
TGI (LXFL 529 NSCLC): > 100 µM
TGI (M19-MEL melanoma): > 100 µM
TGI (XF 498 CNS): > 100 µM

Cn1c(=O)nc2n(-c3ccc(F)c(F)c3)c3ccccc3nc-2c1=O
TGI (DLD-1 colon): 85.3 µM
TGI (DMS 273 small cell lung): 36.9 µM
TGI (HOP-18 NSCLC): 97.7 µM
TGI (LXFL 529 NSCLC): 64.9 µM
TGI (M19-MEL melanoma): 3.44 µM
TGI (XF 498 CNS): 36.2 µM

CON1C(=O)C2(CCCCC2)C(=O)C12C=CC(C)CC2 (stereo not drawn)
TGI (DMS 273 small cell lung): > 100 µM
TGI (LXFL 529 NSCLC): > 100 µM
TGI (M19-MEL melanoma): > 100 µM
TGI (XF 498 CNS): > 100 µM

COC(=O)CCCCCOS(=O)(=O)c1ccc(C)cc1
TGI (DLD-1 colon): > 100 µM
TGI (DMS 273 small cell lung): > 100 µM
TGI (HOP-18 NSCLC): > 100 µM
TGI (LXFL 529 NSCLC): > 100 µM
TGI (M19-MEL melanoma): > 100 µM
TGI (XF 498 CNS): > 100 µM

COc1ccc2c(c1)c1ccc3c(c1n2C)C(=O)C=CC3=O
TGI (DLD-1 colon): 20.9 µM
TGI (DMS 273 small cell lung): > 56.3 µM
TGI (HOP-18 NSCLC): 24.7 µM
TGI (HS 578T breast): 28.1 µM
TGI (LXFL 529 NSCLC): 30.2 µM
TGI (M19-MEL melanoma): > 58.9 µM
TGI (MCF7 breast): 15.5 µM
TGI (MDA-MB-231 breast): 12.1 µM
TGI (MDA-MB-435): 22.7 µM
TGI (XF 498 CNS): 32.1 µM

Cn1cnc(SC2=CC(=O)C=C3S[C@H]4C[C@@]23c2c(c(O)c3c5c2=NCCC=5C=N3)N4)c1CC(N)C(=O)O (stereo partly drawn)
GI50 (DLD-1 colon): 12.6 µM
TGI (DLD-1 colon): 26.3 µM
GI50 (DMS 273 small cell lung): 7.33 µM
TGI (DMS 273 small cell lung): 20.3 µM
TGI (HOP-18 NSCLC): 30.7 µM
GI50 (HS 578T breast): 39.7 µM
TGI (HS 578T breast): 96.1 µM
TGI (M19-MEL melanoma): 3.89 µM
TGI (MCF7 breast): 11.5 µM
GI50 (MDA-MB-231 breast): 6.6 µM
TGI (MDA-MB-231 breast): 20.3 µM
GI50 (MDA-MB-435): 1880 nM
TGI (MDA-MB-435): 3.44 µM
GI50 (XF 498 CNS): 17.6 µM
TGI (XF 498 CNS): 31.4 µM

COC(=O)C(/C(=N/N)C(=O)Nc1cc(Cl)ccc1Cl)c1nc2ccc([N+](=O)[O-])cc2[nH]c1=O (stereo not drawn)
TGI (DMS 273 small cell lung): > 100 µM
TGI (LXFL 529 NSCLC): > 100 µM
TGI (XF 498 CNS): > 100 µM

CC1CCCc2c1n[nH]c2CC1CC(=O)NC(=O)C1 (stereo not drawn)
TGI (DLD-1 colon): > 100 µM
TGI (DMS 273 small cell lung): > 100 µM
TGI (HOP-18 NSCLC): > 100 µM
TGI (LXFL 529 NSCLC): > 100 µM
TGI (M19-MEL melanoma): > 100 µM
TGI (XF 498 CNS): > 100 µM

COc1ccc(/C=C/c2cc(OC)c(OC)c(OC)c2)cc1OC
TGI (DLD-1 colon): > 100 µM
TGI (DMS 273 small cell lung): > 100 µM
TGI (HOP-18 NSCLC): > 100 µM
TGI (LXFL 529 NSCLC): > 100 µM
TGI (XF 498 CNS): > 100 µM

COc1nc(NC2OC(COC(C)=O)C(OC(C)=O)C(OC(C)=O)C2OC(C)=O)c(N=C(C)C(C)=O)c(=O)n1C (stereo not drawn)
TGI (DLD-1 colon): > 100 µM
TGI (HOP-18 NSCLC): > 100 µM
TGI (LXFL 529 NSCLC): > 100 µM
TGI (M19-MEL melanoma): > 100 µM
TGI (XF 498 CNS): > 100 µM

Nc1ccc(C(=O)CC2(O)C(=O)Nc3ccccc32)cc1 (stereo not drawn)
TGI (DLD-1 colon): > 100 µM
TGI (DMS 273 small cell lung): > 100 µM
TGI (LXFL 529 NSCLC): > 100 µM
TGI (M19-MEL melanoma): > 100 µM
TGI (XF 498 CNS): > 100 µM

CCOC(=O)NC(=O)c1cn(C2CCCCC2)c(=O)n(C)c1=O
TGI (DLD-1 colon): > 100 µM
TGI (DMS 273 small cell lung): > 100 µM
TGI (HOP-18 NSCLC): > 100 µM
TGI (LXFL 529 NSCLC): > 100 µM
TGI (M19-MEL melanoma): > 100 µM

C=CCN=C1NC(=O)C(CC(=O)Nc2cccc(Cl)c2)S1 (stereo not drawn)
TGI (DLD-1 colon): > 100 µM
TGI (DMS 273 small cell lung): > 100 µM
TGI (HOP-18 NSCLC): > 100 µM
TGI (LXFL 529 NSCLC): > 100 µM
TGI (M19-MEL melanoma): > 100 µM
TGI (XF 498 CNS): > 100 µM

Cc1ccccc1SC(/C=C/NNC1=NC(c2ccccc2)C(c2ccccc2)=NN1)c1ccccc1 (stereo not drawn)
TGI (DLD-1 colon): > 100 µM
TGI (DMS 273 small cell lung): > 100 µM
TGI (M19-MEL melanoma): > 100 µM
TGI (XF 498 CNS): 60.4 µM

COc1cccc(/C=C2\N=C(Cl)OC2=O)c1O
TGI (DLD-1 colon): > 100 µM
TGI (DMS 273 small cell lung): > 100 µM
TGI (HOP-18 NSCLC): > 100 µM
TGI (LXFL 529 NSCLC): > 100 µM
TGI (XF 498 CNS): > 100 µM

O=C(N/C(=C\c1cccc([N+](=O)[O-])c1)c1nc2c3c(ccc2[nH]1)C(=O)c1ccccc1C3=O)c1ccccc1
TGI (DLD-1 colon): > 100 µM
TGI (HOP-18 NSCLC): > 100 µM
TGI (LXFL 529 NSCLC): > 100 µM
TGI (XF 498 CNS): > 100 µM

CC(C)(C)OC(=O)NC(Cc1ccccc1)C(=S)N1CCCC1 (stereo not drawn)
TGI (DLD-1 colon): > 100 µM
TGI (DMS 273 small cell lung): > 100 µM
TGI (HOP-18 NSCLC): > 100 µM
TGI (LXFL 529 NSCLC): > 100 µM
TGI (M19-MEL melanoma): > 100 µM
TGI (XF 498 CNS): > 100 µM
